Experimental data: patent publication US9693556B2, “Herbicidal pyridazinone derivatives” (SYNGENTA LIMITED, priority 2011, dated 2017)

Legend:
Format in all cases: in vivo
Setaria faberi (SETFA) [1] = assay: Post-emergence herbicidal glasshouse test on Setaria faberi; details: post-emergence; 1000 g/h; evaluated after 13 days
Procedure, shortened: (§1)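 Application rate 1000 g/h, formulated in acetone/water (50:50) with 0.5% Tween 20 and sprayed onto pots sown 1 day (pre-emergence) or 8 days (post-emergence) earlier. Evaluation at 13 days rated damage from 1 (0-19%) to 5 (80-100%).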

[2] = tested on: Ipomoea hederacea (IPOHE); assay: Pre-emergence herbicidal glasshouse test on Ipomoea hederacea; details: pre-emergence; 1000 g/h; evaluated after 13 days
Procedure, shortened: as §1

[3] = tested on: Ipomoea hederacea (IPOHE); assay: Post-emergence herbicidal glasshouse test on Ipomoea hederacea; details: post-emergence; 1000 g/h; evaluated after 13 days
Procedure, shortened: as §1

[4] = tested on: Echinochloa crus-galli (ECHCG); assay: Pre-emergence herbicidal glasshouse test on Echinochloa crus-galli; details: pre-emergence; 1000 g/h; evaluated after 13 days
Procedure, shortened: as §1

[5] = tested on: Echinochloa crus-galli (ECHCG); assay: Post-emergence herbicidal glasshouse test on Echinochloa crus-galli; details: post-emergence; 1000 g/h; evaluated after 13 days
Procedure, shortened: as §1

Solanum nigrum (SOLNI) [6] = assay: Post-emergence herbicidal glasshouse test on Solanum nigrum; details: post-emergence; 1000 g/h; evaluated after 13 days
Procedure, shortened: as §1

[7] = tested on: Amaranthus retoflexus (AMARE); assay: Pre-emergence herbicidal glasshouse test on Amaranthus retoflexus; details: pre-emergence; 1000 g/h; evaluated after 13 days
Procedure, shortened: as §1

Setaria faberi (SETFA) [8] = assay: Pre-emergence herbicidal glasshouse test on Setaria faberi; details: pre-emergence; 1000 g/h; evaluated after 13 days
Procedure, shortened: as §1

[9] = tested on: Alopecurus myosuroides (ALOMY); assay: Post-emergence herbicidal glasshouse test on Alopecurus myosuroides; details: post-emergence; 1000 g/h; evaluated after 13 days
Procedure, shortened: as §1

Solanum nigrum (SOLNI) [10] = assay: Pre-emergence herbicidal glasshouse test on Solanum nigrum; details: pre-emergence; 1000 g/h; evaluated after 13 days
Procedure, shortened: as §1

[11] = tested on: Alopecurus myosuroides (ALOMY); assay: Pre-emergence herbicidal glasshouse test on Alopecurus myosuroides; details: pre-emergence; 1000 g/h; evaluated after 13 days
Procedure, shortened: as §1

[12] = tested on: Amaranthus retoflexus (AMARE); assay: Post-emergence herbicidal glasshouse test on Amaranthus retoflexus; details: post-emergence; 1000 g/h; evaluated after 13 days
Procedure, shortened: as §1

| Compound | POST Application SETFA herbicidal damage (five point scale) (Setaria faberi (SETFA) [1]) | PRE Application IPOHE herbicidal damage (five point scale) [2] | POST Application IPOHE herbicidal damage (five point scale) [3] | PRE Application ECHCG herbicidal damage (five point scale) [4] | POST Application ECHCG herbicidal damage (five point scale) [5] | POST Application SOLNI herbicidal damage (five point scale) (Solanum nigrum (SOLNI) [6]) | PRE Application AMARE herbicidal damage (five point scale) [7] | PRE Application SETFA herbicidal damage (five point scale) (Setaria faberi (SETFA) [8]) | POST Application ALOMY herbicidal damage (five point scale) [9] | PRE Application SOLNI herbicidal damage (five point scale) (Solanum nigrum (SOLNI) [10]) | PRE Application ALOMY herbicidal damage (five point scale) [11] | POST Application AMARE herbicidal damage (five point scale) [12] |
| --- | --- | --- | --- | --- | --- | --- | --- | --- | --- | --- | --- | --- |
| Cn1ncc(-n2ccc(C(F)(F)F)c(-c3cc(Cl)cc(Cl)c3)c2=O)c(O)c1=O [Compound 7.022] | 5 (5=80-100% damage) | 2 (2=20-39% damage) | 2 (2=20-39% damage) | 5 (5=80-100% damage) | 5 (5=80-100% damage) | 5 (5=80-100% damage) | 5 (5=80-100% damage) | 5 (5=80-100% damage) | 4 (4=60-79% damage) | 5 (5=80-100% damage) | 5 (5=80-100% damage) | 5 (5=80-100% damage) |
| Cn1ncc(-c2ccc([N+](=O)[O-])cc2S(C)(=O)=O)c(O)c1=O [Compound 2.032] | 4 (4=60-79% damage) | 3 (3=40-59% damage) | 5 (5=80-100% damage) | 5 (5=80-100% damage) | 5 (5=80-100% damage) | 5 (5=80-100% damage) | 5 (5=80-100% damage) | 2 (2=20-39% damage) | 3 (3=40-59% damage) | 5 (5=80-100% damage) | 2 (2=20-39% damage) | 5 (5=80-100% damage) |
| Cn1ncc(-c2c(Br)cccc2S(C)(=O)=O)c(O)c1=O [Compound 1.106] | 2 (2=20-39% damage) | 1 (1=0-19% damage) | 2 (2=20-39% damage) | 1 (1=0-19% damage) | 4 (4=60-79% damage) | 4 (4=60-79% damage) | 4 (4=60-79% damage) | 1 (1=0-19% damage) | 2 (2=20-39% damage) | 1 (1=0-19% damage) | 1 (1=0-19% damage) | 5 (5=80-100% damage) |
| Cn1ncc(-c2ccccc2C(F)(F)F)c(O)c1=O [Compound 1.116] | 2 (2=20-39% damage) | 1 (1=0-19% damage) | 4 (4=60-79% damage) | 1 (1=0-19% damage) | 2 (2=20-39% damage) | 5 (5=80-100% damage) | 5 (5=80-100% damage) | 2 (2=20-39% damage) | 1 (1=0-19% damage) | 3 (3=40-59% damage) | 2 (2=20-39% damage) | 4 (4=60-79% damage) |
| Cn1ncc(-c2ccc(C(F)(F)F)nc2S(C)(=O)=O)c(O)c1=O [Compound 4.003] | 5 (5=80-100% damage) | 5 (5=80-100% damage) | 5 (5=80-100% damage) | 5 (5=80-100% damage) | 5 (5=80-100% damage) | 5 (5=80-100% damage) | 5 (5=80-100% damage) | 5 (5=80-100% damage) | 5 (5=80-100% damage) | 5 (5=80-100% damage) | 5 (5=80-100% damage) | 5 (5=80-100% damage) |
| COc1cc(-c2c(C(F)(F)F)ccn(-c3cnn(C)c(=O)c3O)c2=O)cc(OC)c1OC [Compound 7.021] | 5 (5=80-100% damage) | 4 (4=60-79% damage) | 4 (4=60-79% damage) | 5 (5=80-100% damage) | 5 (5=80-100% damage) | 5 (5=80-100% damage) | 5 (5=80-100% damage) | 5 (5=80-100% damage) | 5 (5=80-100% damage) | 5 (5=80-100% damage) | 5 (5=80-100% damage) | 5 (5=80-100% damage) |
| Cn1ncc(-c2ccc(COCC(F)(F)F)cc2S(C)(=O)=O)c(O)c1=O [Compound 2.053] | 2 (2=20-39% damage) | 1 (1=0-19% damage) | 5 (5=80-100% damage) | 5 (5=80-100% damage) | 3 (3=40-59% damage) | 5 (5=80-100% damage) | 5 (5=80-100% damage) | 2 (2=20-39% damage) | 3 (3=40-59% damage) | 5 (5=80-100% damage) | 3 (3=40-59% damage) | 5 (5=80-100% damage) |
| COCCOc1c(S(C)(=O)=O)ccc(-c2cnn(C)c(=O)c2O)c1Cl [Compound 1.034] | 5 (5=80-100% damage) | 3 (3=40-59% damage) | 5 (5=80-100% damage) | 5 (5=80-100% damage) | 5 (5=80-100% damage) | 5 (5=80-100% damage) | 5 (5=80-100% damage) | 5 (5=80-100% damage) | 4 (4=60-79% damage) | 5 (5=80-100% damage) | 2 (2=20-39% damage) | 5 (5=80-100% damage) |
| Cc1c(-c2c(C(C)C)nn(C)c(=O)c2O)ccc(S(C)(=O)=O)c1C1=NOCC1 [Compound 2.024] | 5 (5=80-100% damage) | 4 (4=60-79% damage) | 5 (5=80-100% damage) | 5 (5=80-100% damage) | 5 (5=80-100% damage) | 5 (5=80-100% damage) | 5 (5=80-100% damage) | 4 (4=60-79% damage) | 5 (5=80-100% damage) | 4 (4=60-79% damage) | 5 (5=80-100% damage) | 5 (5=80-100% damage) |
| Cn1ncc(-c2c(Cl)cccc2Cl)c(O)c1=O [Compound 1.118] | 1 (1=0-19% damage) | 1 (1=0-19% damage) | 2 (2=20-39% damage) | 1 (1=0-19% damage) | 2 (2=20-39% damage) | 3 (3=40-59% damage) | 1 (1=0-19% damage) | 1 (1=0-19% damage) | 1 (1=0-19% damage) | 1 (1=0-19% damage) | 1 (1=0-19% damage) | 4 (4=60-79% damage) |
